According to publication PMC8429728, “TNK1 is a ubiquitin-binding and 14-3-3-regulated kinase that can be targeted to block tumor growth” (Nature Communications, 2021):
Like-named read-outs stand apart in the source and are kept apart here.

How the values were obtained:
Assay in all cases: biochemical
Set-up in all cases: Reaction Biology 371-kinase panel at Km ATP, per cent enzyme activity relative to DMSO, single dose in duplicate
AKT1 = AKT1 (Homo sapiens, UniProt P31749); details: duplicate measurements, Km ATP; read-out: % Enzyme Activity (relative to DMSO controls) / TP-0005801 (0.3µM) / Data 1
Procedure, shortened: (§1)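 In vitro selectivity panel: 371 kinases, inhibitor at 300 nM; % activity vs DMSO; IC50 by variable-slope sigmoidal fit, bottom = 0.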

ALK1/ACVRL1 = ALK1/ACVRL1 (Homo sapiens, UniProt P37023); details: duplicate measurements, Km ATP
Sequence of ALK1/ACVRL1 (P37023 whole entry): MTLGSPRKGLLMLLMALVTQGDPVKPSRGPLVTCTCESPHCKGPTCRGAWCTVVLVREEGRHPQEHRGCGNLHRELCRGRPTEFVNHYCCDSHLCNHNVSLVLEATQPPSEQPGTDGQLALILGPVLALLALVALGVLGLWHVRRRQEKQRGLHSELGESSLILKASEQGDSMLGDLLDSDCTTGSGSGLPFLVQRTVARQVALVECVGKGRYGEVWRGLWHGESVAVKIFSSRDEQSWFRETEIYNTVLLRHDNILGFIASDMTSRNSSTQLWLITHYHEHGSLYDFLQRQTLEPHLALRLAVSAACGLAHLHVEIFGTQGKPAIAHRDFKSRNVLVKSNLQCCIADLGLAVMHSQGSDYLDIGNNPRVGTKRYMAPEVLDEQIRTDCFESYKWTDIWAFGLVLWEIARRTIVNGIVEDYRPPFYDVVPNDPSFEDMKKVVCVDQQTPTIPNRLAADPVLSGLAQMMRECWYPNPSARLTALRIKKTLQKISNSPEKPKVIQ
Procedure, shortened: as §1

CDK9/cyclin T2 = CDK9/cyclin T2 (Homo sapiens, UniProt P50750); details: duplicate measurements, Km ATP
Procedure, shortened: as §1

CK1a1 = biological target: T1, CK1a1 (Homo sapiens, UniProt P48729); details: duplicate measurements, Km ATP
T1 construct: gene CSNK1A1
T1 sequence (P48729 whole entry): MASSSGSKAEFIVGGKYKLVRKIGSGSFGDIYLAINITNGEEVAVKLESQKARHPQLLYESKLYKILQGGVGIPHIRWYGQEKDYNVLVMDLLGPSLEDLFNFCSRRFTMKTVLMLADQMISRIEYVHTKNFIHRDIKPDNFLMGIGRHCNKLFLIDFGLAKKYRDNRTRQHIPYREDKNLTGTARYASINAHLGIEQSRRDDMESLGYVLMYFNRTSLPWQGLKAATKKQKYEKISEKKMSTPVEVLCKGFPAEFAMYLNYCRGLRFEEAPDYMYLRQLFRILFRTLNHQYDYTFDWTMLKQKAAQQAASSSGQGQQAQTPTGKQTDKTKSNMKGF
Procedure, shortened: as §1

CK1a1L = biological target: T2, CK1a1L (Homo sapiens, UniProt Q8N752); details: duplicate measurements, Km ATP
T2 construct: gene CSNK1A1L
T2 sequence (Q8N752 whole entry): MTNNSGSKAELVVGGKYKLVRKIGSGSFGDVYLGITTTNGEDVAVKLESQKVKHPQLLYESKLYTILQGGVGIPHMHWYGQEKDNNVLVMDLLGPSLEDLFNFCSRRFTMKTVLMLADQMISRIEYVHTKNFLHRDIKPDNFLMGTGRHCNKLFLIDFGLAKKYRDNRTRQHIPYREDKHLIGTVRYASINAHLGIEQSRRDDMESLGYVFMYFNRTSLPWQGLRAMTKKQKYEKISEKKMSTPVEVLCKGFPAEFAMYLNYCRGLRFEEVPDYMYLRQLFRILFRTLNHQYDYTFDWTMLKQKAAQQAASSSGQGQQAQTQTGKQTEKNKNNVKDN
Procedure, shortened: as §1

CLK4 = CLK4 (Homo sapiens, UniProt Q9HAZ1); details: duplicate measurements, Km ATP
Procedure, shortened: as §1

EPHA2 = EPHA2 (Homo sapiens, UniProt P29317); details: duplicate measurements, Km ATP
Sequence of EPHA2 (P29317 whole entry): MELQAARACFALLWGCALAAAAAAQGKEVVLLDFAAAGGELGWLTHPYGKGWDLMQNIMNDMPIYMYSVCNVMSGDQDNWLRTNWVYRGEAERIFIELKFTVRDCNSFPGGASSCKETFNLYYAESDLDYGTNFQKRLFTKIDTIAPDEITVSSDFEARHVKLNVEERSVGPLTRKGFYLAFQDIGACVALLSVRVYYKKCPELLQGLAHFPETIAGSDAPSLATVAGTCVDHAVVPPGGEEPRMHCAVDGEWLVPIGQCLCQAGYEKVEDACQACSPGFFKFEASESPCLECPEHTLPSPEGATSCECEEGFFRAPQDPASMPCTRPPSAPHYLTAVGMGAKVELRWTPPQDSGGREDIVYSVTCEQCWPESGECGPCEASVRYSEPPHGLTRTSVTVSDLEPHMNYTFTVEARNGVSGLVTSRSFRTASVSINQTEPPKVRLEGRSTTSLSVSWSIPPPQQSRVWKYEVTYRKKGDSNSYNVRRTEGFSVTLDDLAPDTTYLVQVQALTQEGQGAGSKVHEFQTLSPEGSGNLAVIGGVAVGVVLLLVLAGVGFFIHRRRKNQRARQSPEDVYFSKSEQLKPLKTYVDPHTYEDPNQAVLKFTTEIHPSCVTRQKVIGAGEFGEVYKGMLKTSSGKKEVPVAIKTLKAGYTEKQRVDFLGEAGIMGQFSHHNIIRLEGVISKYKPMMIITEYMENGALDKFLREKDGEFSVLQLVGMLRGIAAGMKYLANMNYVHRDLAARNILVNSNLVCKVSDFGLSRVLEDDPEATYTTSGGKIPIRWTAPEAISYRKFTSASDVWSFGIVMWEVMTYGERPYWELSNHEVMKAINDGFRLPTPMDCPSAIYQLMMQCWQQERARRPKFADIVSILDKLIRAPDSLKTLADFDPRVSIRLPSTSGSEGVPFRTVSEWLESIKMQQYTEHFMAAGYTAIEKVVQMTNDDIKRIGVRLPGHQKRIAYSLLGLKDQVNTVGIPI
Procedure, shortened: as §1

ERK1 = biological target: T3, ERK1 (Homo sapiens, UniProt P27361); details: duplicate measurements, Km ATP
T3 construct: gene MAPK3
Procedure, shortened: as §1

IGF1R = IGF1R (Homo sapiens, UniProt P08069); details: duplicate measurements, Km ATP
Procedure, shortened: as §1

JAK3 = JAK3 (Homo sapiens, UniProt P52333); details: duplicate measurements, Km ATP
Procedure, shortened: as §1

LYN B = biological target: T4, LYN B (Homo sapiens, UniProt P07948); details: duplicate measurements, Km ATP
T4 construct: isoform B
Procedure, shortened: as §1

MEKK1 = biological target: T5, MEKK1 (Homo sapiens, UniProt Q13233); details: duplicate measurements, Km ATP
T5 construct: gene MAP3K1
T5 sequence (Q13233 whole entry): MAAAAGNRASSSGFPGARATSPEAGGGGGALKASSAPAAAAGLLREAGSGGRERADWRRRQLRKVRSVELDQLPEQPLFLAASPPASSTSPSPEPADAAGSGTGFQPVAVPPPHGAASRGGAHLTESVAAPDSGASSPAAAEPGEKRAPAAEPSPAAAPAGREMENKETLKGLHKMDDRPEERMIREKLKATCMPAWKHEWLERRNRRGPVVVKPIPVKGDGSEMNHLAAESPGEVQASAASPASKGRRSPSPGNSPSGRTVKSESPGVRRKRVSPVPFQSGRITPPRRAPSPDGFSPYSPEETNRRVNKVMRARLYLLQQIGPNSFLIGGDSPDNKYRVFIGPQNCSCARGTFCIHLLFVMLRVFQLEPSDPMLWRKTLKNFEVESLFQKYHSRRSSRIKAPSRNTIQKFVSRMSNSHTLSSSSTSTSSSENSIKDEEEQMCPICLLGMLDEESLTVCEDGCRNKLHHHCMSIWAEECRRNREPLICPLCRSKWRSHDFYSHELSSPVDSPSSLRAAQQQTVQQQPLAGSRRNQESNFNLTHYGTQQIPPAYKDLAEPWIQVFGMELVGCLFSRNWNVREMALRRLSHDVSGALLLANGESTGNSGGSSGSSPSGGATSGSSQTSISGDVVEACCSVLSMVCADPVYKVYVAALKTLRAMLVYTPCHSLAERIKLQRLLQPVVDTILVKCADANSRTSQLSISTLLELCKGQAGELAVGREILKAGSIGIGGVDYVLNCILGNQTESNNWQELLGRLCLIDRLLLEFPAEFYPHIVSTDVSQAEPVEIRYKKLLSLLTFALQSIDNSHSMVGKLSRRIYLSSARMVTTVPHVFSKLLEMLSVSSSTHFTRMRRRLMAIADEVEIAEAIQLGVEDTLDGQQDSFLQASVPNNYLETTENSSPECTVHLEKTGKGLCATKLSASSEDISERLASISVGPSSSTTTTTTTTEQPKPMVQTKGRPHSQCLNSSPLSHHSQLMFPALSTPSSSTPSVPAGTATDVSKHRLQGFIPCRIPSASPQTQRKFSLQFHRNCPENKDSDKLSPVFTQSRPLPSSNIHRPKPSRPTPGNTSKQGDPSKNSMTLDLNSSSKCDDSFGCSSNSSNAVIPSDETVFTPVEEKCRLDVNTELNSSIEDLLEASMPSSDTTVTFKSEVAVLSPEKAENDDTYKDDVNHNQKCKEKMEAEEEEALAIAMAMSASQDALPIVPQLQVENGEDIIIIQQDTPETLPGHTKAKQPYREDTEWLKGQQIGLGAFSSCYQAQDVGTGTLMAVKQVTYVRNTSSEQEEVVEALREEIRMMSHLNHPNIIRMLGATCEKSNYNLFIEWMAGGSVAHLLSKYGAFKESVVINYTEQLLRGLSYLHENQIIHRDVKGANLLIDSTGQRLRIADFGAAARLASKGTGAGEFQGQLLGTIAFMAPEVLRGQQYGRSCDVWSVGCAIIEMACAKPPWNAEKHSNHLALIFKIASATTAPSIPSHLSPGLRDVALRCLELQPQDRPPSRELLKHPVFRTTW
Procedure, shortened: as §1

MKK4 = biological target: T6, MKK4 (Homo sapiens, UniProt P45985); details: duplicate measurements, Km ATP
T6 construct: gene MAP2K4
Procedure, shortened: as §1

MNK1 = biological target: T7, MNK1 (Homo sapiens, UniProt Q9BUB5); details: duplicate measurements, Km ATP
T7 construct: gene MKNK1
T7 sequence (Q9BUB5 whole entry): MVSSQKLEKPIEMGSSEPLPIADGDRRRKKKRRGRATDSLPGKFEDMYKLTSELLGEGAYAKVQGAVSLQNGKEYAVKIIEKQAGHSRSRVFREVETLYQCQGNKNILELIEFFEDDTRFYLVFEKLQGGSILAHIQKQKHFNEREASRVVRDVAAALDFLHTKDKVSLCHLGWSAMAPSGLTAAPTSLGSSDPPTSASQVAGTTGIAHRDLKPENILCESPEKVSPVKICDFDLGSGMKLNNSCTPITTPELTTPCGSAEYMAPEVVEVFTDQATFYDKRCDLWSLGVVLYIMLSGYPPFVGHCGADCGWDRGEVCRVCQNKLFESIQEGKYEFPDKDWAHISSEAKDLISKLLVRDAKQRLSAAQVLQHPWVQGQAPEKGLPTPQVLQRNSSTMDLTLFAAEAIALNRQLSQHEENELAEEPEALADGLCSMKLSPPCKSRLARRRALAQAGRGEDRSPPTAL
Procedure, shortened: as §1

P38b/MAPK11 = P38b/MAPK11 (Homo sapiens, UniProt Q15759); details: duplicate measurements, Km ATP
Procedure, shortened: as §1

P38d/MAPK13 = P38d/MAPK13 (Homo sapiens, UniProt O15264); details: duplicate measurements, Km ATP
Sequence of P38d/MAPK13 (O15264 whole entry): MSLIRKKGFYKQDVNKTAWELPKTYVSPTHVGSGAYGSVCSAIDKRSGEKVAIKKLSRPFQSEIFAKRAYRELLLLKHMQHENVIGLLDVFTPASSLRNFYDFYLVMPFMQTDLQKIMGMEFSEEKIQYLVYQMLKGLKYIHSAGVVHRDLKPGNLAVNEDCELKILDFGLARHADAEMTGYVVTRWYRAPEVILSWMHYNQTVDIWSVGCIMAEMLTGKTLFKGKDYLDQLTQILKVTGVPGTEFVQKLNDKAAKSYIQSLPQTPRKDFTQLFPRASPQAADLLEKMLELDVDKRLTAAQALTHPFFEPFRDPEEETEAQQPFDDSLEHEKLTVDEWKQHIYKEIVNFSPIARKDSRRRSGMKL
Procedure, shortened: as §1

PKAcb = biological target: T8, PKAcb (Homo sapiens, UniProt P22694); details: duplicate measurements, Km ATP
T8 construct: gene PRKACB
Procedure, shortened: as §1

STK39/STLK3 = STK39/STLK3 (Homo sapiens, UniProt Q9UEW8); details: duplicate measurements, Km ATP
Procedure, shortened: as §1

TLK2 = TLK2 (Homo sapiens, UniProt Q86UE8); details: duplicate measurements, Km ATP
Procedure, shortened: as §1

TXK = TXK (Homo sapiens, UniProt P42681); details: duplicate measurements, Km ATP
Sequence of TXK (P42681 whole entry): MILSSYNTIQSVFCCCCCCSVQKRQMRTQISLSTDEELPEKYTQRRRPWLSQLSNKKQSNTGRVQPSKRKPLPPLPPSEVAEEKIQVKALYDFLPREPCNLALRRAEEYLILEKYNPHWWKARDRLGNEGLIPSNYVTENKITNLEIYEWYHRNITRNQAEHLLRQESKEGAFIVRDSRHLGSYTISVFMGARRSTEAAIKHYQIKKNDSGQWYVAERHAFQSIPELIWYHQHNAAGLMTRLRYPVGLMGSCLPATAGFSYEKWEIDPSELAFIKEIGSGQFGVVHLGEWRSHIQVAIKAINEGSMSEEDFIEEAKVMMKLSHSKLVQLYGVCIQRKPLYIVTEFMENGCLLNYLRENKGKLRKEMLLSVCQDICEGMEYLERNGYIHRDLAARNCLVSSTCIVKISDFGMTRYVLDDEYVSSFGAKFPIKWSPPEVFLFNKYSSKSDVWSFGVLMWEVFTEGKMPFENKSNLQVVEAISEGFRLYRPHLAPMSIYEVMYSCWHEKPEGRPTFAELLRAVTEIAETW
Procedure, shortened: as §1

[1] = read-out: % Enzyme Activity (relative to DMSO controls) / TP-0005801 (0.3µM) / Data 1
[2] = read-out: % Enzyme Activity (relative to DMSO controls) / TP-0005801 (0.3µM) / Data 2

remaining activity at 0.3 µM (AKT1): 105%
remaining activity at 0.3 µM (ALK1/ACVRL1; [1]): 88.3%
remaining activity at 0.3 µM (ALK1/ACVRL1; [2]): 83.6%
remaining activity at 0.3 µM (CDK9/cyclin T2; [1]): 89.2%
remaining activity at 0.3 µM (CDK9/cyclin T2; [2]): 88.6%
remaining activity at 0.3 µM (CK1a1; [1]): 94.3%
remaining activity at 0.3 µM (CK1a1; [2]): 93.1%
remaining activity at 0.3 µM (CK1a1L; [1]): 101%
remaining activity at 0.3 µM (CK1a1L; [2]): 99.8%
remaining activity at 0.3 µM (CLK4; [1]): 30.4%
remaining activity at 0.3 µM (CLK4; [2]): 30.2%
remaining activity at 0.3 µM (EPHA2; [1]): 98.3%
remaining activity at 0.3 µM (EPHA2; [2]): 95.9%
remaining activity at 0.3 µM (ERK1; [1]): 108%
remaining activity at 0.3 µM (ERK1; [2]): 107%
remaining activity at 0.3 µM (IGF1R; [1]): 16.7%
remaining activity at 0.3 µM (IGF1R; [2]): 16.2%
remaining activity at 0.3 µM (JAK3; [1]): 29.3%
remaining activity at 0.3 µM (JAK3; [2]): 28.7%
remaining activity at 0.3 µM (LYN B; [1]): 99.5%
remaining activity at 0.3 µM (LYN B; [2]): 99.4%
remaining activity at 0.3 µM (MEKK1; [1]): 111%
remaining activity at 0.3 µM (MEKK1; [2]): 109%
remaining activity at 0.3 µM (MKK4; [1]): 78.8%
remaining activity at 0.3 µM (MKK4; [2]): 76%
remaining activity at 0.3 µM (MNK1; [1]): 92.5%
remaining activity at 0.3 µM (MNK1; [2]): 90.8%
remaining activity at 0.3 µM (P38b/MAPK11; [1]): 102%
remaining activity at 0.3 µM (P38b/MAPK11; [2]): 101%
remaining activity at 0.3 µM (P38d/MAPK13; [1]): 102%
remaining activity at 0.3 µM (P38d/MAPK13; [2]): 91.4%
remaining activity at 0.3 µM (PKAcb; [1]): 98%
remaining activity at 0.3 µM (PKAcb; [2]): 96.7%
remaining activity at 0.3 µM (STK39/STLK3; [1]): 61.2%
remaining activity at 0.3 µM (STK39/STLK3; [2]): 61.1%
remaining activity at 0.3 µM (TLK2; [1]): 101%
remaining activity at 0.3 µM (TLK2; [2]): 100%
remaining activity at 0.3 µM (TXK; [1]): 114%
remaining activity at 0.3 µM (TXK; [2]): 112%
Compound: COc1cc(N2CCN(C)CC2)c(C)cc1Nc1ncc(Br)c(Nc2cccnc2N(C)C)n1 [TP-5801]
